ChEMBL document CHEMBL5579900, “Enhanced Recognition Memory through Dual Modulation of Brain Carbonic Anhydrases and Cholinesterases” (J Med Chem, 2024)

Experiments:
[1] = molecular target: Cholinesterase (Equus caballus, UniProt P81908)
Description: Inhibition of equine serum BuChE by microplate reader based analysis

[2] = molecular target: Carbonic anhydrase 1 (Homo sapiens) (UniProt P00915)
Description: Binding affinity to human carbonic anhydrase 1 assessed as activation constant by phenol red dye based stopped-flow method

[3] = molecular target: Carbonic anhydrase 5B, mitochondrial (Homo sapiens) (UniProt Q9Y2D0)
Description: Binding affinity to human carbonic anhydrase 5B assessed as activation constant by phenol red dye based stopped-flow method

[4] = molecular target: Carbonic anhydrase 4 (Homo sapiens) (UniProt P22748)
Description: Binding affinity to human carbonic anhydrase 4 assessed as activation constant by phenol red dye based stopped-flow method

[5] = molecular target: Acetylcholinesterase (Electrophorus electricus, UniProt O42275)
Description: Inhibition of electric eel AChE by microplate reader based analysis

[6] = molecular target: Carbonic anhydrase 2 (Homo sapiens) (UniProt P00918)
Description: Binding affinity to human carbonic anhydrase 2 assessed as activation constant by phenol red dye based stopped-flow method

[7] = molecular target: Carbonic anhydrase 7 (Homo sapiens) (UniProt P43166)
Carbonic anhydrase 7 (Homo sapiens), sequence (P43166 whole entry): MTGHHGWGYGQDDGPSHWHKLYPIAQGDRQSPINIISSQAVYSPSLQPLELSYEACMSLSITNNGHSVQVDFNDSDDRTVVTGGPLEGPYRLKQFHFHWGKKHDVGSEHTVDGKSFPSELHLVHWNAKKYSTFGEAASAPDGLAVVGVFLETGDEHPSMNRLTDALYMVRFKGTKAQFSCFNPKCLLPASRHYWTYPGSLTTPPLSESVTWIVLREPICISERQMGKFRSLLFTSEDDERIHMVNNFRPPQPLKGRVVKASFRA
Description: Binding affinity to human carbonic anhydrase 7 assessed as activation constant by phenol red dye based stopped-flow method

Carbonic anhydrase 1 (Homo sapiens), sequence (P00915 2-261 limits assumed): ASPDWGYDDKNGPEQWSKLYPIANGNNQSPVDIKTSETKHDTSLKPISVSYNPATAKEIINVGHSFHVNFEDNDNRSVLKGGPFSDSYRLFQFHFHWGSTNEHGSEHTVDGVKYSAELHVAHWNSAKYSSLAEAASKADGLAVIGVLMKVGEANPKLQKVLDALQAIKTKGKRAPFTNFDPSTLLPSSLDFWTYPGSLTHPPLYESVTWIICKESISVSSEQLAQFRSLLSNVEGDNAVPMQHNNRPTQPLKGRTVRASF
Cholinesterase, sequence (P81908 whole entry): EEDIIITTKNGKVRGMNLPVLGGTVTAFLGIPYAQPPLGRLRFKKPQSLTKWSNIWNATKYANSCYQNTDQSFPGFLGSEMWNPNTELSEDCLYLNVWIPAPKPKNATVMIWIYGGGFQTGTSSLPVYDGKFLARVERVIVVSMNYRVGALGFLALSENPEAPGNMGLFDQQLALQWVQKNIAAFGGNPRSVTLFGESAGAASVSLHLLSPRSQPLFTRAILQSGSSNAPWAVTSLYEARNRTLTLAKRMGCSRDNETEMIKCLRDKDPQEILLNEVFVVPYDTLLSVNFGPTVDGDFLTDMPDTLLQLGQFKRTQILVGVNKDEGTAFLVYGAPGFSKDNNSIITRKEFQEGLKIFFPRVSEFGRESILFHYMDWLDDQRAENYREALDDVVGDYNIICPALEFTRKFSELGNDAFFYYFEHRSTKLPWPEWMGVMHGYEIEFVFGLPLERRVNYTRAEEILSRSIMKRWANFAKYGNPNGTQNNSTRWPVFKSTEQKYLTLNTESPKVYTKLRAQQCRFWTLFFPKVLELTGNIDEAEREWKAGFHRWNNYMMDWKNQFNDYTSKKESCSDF
Carbonic anhydrase 5B, mitochondrial (Homo sapiens), sequence (Q9Y2D0 whole entry): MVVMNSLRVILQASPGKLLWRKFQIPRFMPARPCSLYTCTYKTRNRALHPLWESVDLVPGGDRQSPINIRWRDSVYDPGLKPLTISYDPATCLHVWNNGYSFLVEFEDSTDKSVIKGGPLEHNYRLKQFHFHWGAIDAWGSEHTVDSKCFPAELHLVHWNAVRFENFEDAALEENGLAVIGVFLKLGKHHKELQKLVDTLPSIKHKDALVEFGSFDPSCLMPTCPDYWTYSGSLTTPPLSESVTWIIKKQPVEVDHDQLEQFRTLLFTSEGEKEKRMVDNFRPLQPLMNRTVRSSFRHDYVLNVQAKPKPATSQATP
Acetylcholinesterase, sequence (O42275 whole entry): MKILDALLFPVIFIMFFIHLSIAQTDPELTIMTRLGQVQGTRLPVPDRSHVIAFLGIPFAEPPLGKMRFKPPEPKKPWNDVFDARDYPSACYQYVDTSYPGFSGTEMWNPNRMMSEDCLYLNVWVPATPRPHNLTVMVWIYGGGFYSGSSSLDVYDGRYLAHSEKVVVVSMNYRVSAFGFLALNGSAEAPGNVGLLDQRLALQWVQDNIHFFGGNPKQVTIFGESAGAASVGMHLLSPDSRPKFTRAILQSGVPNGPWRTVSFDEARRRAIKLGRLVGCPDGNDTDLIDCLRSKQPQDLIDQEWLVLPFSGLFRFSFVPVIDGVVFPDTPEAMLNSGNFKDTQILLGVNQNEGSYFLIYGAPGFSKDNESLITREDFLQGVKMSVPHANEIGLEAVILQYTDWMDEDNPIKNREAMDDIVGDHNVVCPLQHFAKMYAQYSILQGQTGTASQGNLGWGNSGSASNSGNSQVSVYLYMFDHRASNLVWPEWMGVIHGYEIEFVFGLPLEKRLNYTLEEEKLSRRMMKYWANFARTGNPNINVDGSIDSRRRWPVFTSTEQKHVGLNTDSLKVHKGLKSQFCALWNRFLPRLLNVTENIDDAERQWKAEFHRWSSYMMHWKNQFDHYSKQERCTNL
Carbonic anhydrase 4 (Homo sapiens), sequence (P22748 whole entry): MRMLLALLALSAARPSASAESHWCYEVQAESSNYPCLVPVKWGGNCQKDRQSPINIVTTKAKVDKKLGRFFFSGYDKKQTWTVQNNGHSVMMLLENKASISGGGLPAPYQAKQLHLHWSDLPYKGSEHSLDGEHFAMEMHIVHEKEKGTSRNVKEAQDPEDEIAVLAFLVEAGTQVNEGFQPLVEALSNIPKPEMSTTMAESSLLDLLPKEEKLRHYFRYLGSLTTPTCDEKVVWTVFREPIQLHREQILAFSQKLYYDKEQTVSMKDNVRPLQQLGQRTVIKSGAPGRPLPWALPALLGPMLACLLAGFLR

Row | Compound | IC50 [1] [nM] | KA [2] [nM] | KA [3] [µM] | KA [4] [µM] | IC50 [5] [nM] | KA [6] [nM] | KA [7] [nM] | KA ([2]; filed as activator) [nM] | KA ([3]; filed as activator) [µM] | KA ([4]; filed as activator) [µM] | KA ([6]; filed as activator) [nM] | KA ([7]; filed as activator) [nM]
1 | CC(C)(C)OC(=O)N[C@@H](Cc1ccccc1)C(=O)NCCCCCCNc1c2c(nc3ccccc13)CCCC2 | 0.091 | > 50000 | > 50 | > 50 | 9.9 | > 50000 | > 50000 |  |  |  |  | 
2 | CC(C)(C)OC(=O)N[C@@H](Cc1ccccc1)C(=O)NCCCCCNc1c2c(nc3ccccc13)CCCC2 | 0.34 | > 50000 | > 50 | > 50 | 243 | > 50000 | > 50000 |  |  |  |  | 
3 | N[C@@H](Cc1ccccc1)C(=O)NCCCNc1c2c(nc3ccccc13)CCCC2 | 0.22 |  |  |  | 239 |  |  | 893 | 0.971 | 5.85 | 726 | 491
4 | COC(=O)[C@@H](N)Cc1ccc(OCCCCCNc2c3c(nc4ccccc24)CCCC3)cc1 | 0.048 |  |  |  | 22.1 |  |  | 552 | 1.73 | 16.8 | 372 | 803
5 | COC(=O)[C@H](CCCCNC(=O)OCc1ccccc1)NCCCCCNc1c2c(nc3ccccc13)CCCC2 | 0.073 |  |  |  | 12.4 |  |  | 3300 | 1.4 | 19 | 1990 | 1370
6 | N[C@@H](Cc1c[nH]cn1)C(=O)NCCCNc1c2c(nc3ccccc13)CCCC2 | 5.8 |  |  |  | 119 |  |  | 581 | 1.86 | 0.619 | 376 | 281
7 | NCCc1c[nH]cn1 |  |  |  |  |  | > 100000 |  | 2100 | 3.5 | 25 |  | 37000
8 | N[C@@H](Cc1ccccc1)C(=O)NCCCCNc1c2c(nc3ccccc13)CCCC2 | 9.5 |  |  |  | 465 |  |  | 432 | 4.79 | 7.62 | 565 | 433
9 | N[C@@H](Cc1c[nH]c2ccccc12)C(=O)NCCCNc1c2c(nc3ccccc13)CCCC2 | 1.6 |  |  |  | 58.9 |  |  | 1010 | 1.96 | 2.33 | 833 | 566
10 | N[C@@H](Cc1c[nH]c2ccccc12)C(=O)NCCCCNc1c2c(nc3ccccc13)CCCC2 | 2.4 |  |  |  | 145 |  |  | 542 | 0.703 | 3.12 | 413 | 289
11 | CC(C)(C)OC(=O)N[C@@H](Cc1c[nH]c2ccccc12)C(=O)NCCCCCCNc1c2c(nc3ccccc13)CCCC2 | 0.26 |  |  |  | 15.9 |  |  | 1120 | 24.2 | 4.46 | 2660 | 1130
12 | COC(=O)[C@H](Cc1c[nH]cn1)NCCCCCNc1c2c(nc3ccccc13)CCCC2 | 4.4 |  |  |  | 143 |  |  | 311 | 2.43 | 3.65 | 175 | 211
13 | N[C@@H](CCCCNC(=O)OCc1ccccc1)C(=O)NCCCCNc1c2c(nc3ccccc13)CCCC2 | 2.5 |  |  |  | 250 |  |  | 3270 | 1.4 | 9.73 | 1900 | 975
14 | COC(=O)[C@H](Cc1ccc(OCCCCCNc2c3c(nc4ccccc24)CCCC3)cc1)NC(=O)OC(C)(C)C | > 15.3 | > 50000 | > 50 | > 50 | 65.4 | > 50000 | > 50000 |  |  |  |  | 
15 | c1ccc2c(NCCCCCCNCCc3c[nH]cn3)c3c(nc2c1)CCCC3 | 2 |  |  |  | 2.2 |  |  | 236 | 0.5 | 2.28 | 102 | 386
16 | CC(C)(C)OC(=O)N[C@@H](Cc1c[nH]c2ccccc12)C(=O)NCCCNc1c2c(nc3ccccc13)CCCC2 | 0.5 |  | > 50 |  | 426 |  |  | 1920 |  | 21.7 | 5180 | 1920
17 | CC(C)(C)OC(=O)N[C@@H](CCCCNC(=O)OCc1ccccc1)C(=O)NCCCCCNc1c2c(nc3ccccc13)CCCC2 | 0.34 | > 50000 | > 50 | > 50 | 299 | > 50000 | > 50000 |  |  |  |  | 
18 | N[C@@H](Cc1c[nH]cn1)C(=O)NCCCCCCNc1c2c(nc3ccccc13)CCCC2 | 5.2 |  |  |  | 12.1 |  |  | 1050 | 0.554 | 3.56 | 283 | 82.8
19 | COC(=O)[C@H](CCCCNC(=O)OCc1ccccc1)NCCCCCCNc1c2c(nc3ccccc13)CCCC2 | 0.29 |  |  |  | 35.6 |  |  | 2280 | 4.61 | 20.2 | 2410 | 2250

Row | Compound | IC50 [1] [nM] | KA [2] [nM] | KA [3] [µM] | KA [4] [µM] | IC50 [5] [nM] | KA [6] [nM] | KA [7] [nM] | KA ([2]; filed as activator) [nM] | KA ([3]; filed as activator) [µM] | KA ([4]; filed as activator) [µM] | KA ([6]; filed as activator) [nM] | KA ([7]; filed as activator) [nM]
20 | COC(=O)[C@H](Cc1ccccc1)NCCCCCNc1c2c(nc3ccccc13)CCCC2 | 3.8 |  |  |  | 110 |  |  | 731 | 5.32 | 3.45 | 247 | 535
21 | CC(C)(C)OC(=O)N[C@@H](CCCCNC(=O)OCc1ccccc1)C(=O)NCCCNc1c2c(nc3ccccc13)CCCC2 | 0.25 | > 50000 | > 50 | > 50 | 419 | > 50000 | > 50000 |  |  |  |  | 
22 | N[C@@H](Cc1c[nH]c2ccccc12)C(=O)NCCCCCCNc1c2c(nc3ccccc13)CCCC2 | 1.2 |  |  |  | 2.4 |  |  | 876 | 0.353 | 0.541 | 539 | 79.8
23 | CC(C)(C)OC(=O)N[C@@H](Cc1cn(C(=O)OC(C)(C)C)cn1)C(=O)NCCCCCNc1c2c(nc3ccccc13)CCCC2 | 0.57 | > 50000 |  | > 50 | 141 |  | > 50000 |  | 9.05 |  | 11100 | 
24 | COC(=O)[C@H](Cc1c[nH]c2ccccc12)NCCCCCCNc1c2c(nc3ccccc13)CCCC2 | 2.8 |  |  |  | 23.3 |  |  | 436 | 5.1 | 2.23 | 631 | 637
25 | CC(C)(C)OC(=O)N[C@@H](Cc1c[nH]c2ccccc12)C(=O)NCCCCCNc1c2c(nc3ccccc13)CCCC2 | 0.22 |  |  |  | 108 |  |  | 1010 | 7.15 | 5.67 | 2940 | 1020
26 | COC(=O)[C@H](Cc1ccc(OCCCCCCNc2c3c(nc4ccccc24)CCCC3)cc1)NC(=O)OC(C)(C)C | 0.11 | > 50000 | > 50 | > 50 | 16 | > 50000 | > 50000 |  |  |  |  | 
27 | COC(=O)[C@H](Cc1c[nH]c2ccccc12)NCCCCCNc1c2c(nc3ccccc13)CCCC2 | 4 |  |  |  | 37.6 |  |  | 606 | 0.471 | 2.93 | 840 | 482
28 | N[C@@H](CCCCNC(=O)OCc1ccccc1)C(=O)NCCCCCNc1c2c(nc3ccccc13)CCCC2 | 0.33 |  |  |  | 238 |  |  | 3530 | 4.97 | 3.61 | 981 | 2730
29 | CC(C)(C)OC(=O)N[C@@H](Cc1cn(C(=O)OC(C)(C)C)cn1)C(=O)NCCCCCCNc1c2c(nc3ccccc13)CCCC2 | 0.44 | > 50000 | > 50 | > 50 | 14.5 |  | > 50000 |  |  |  | 10000 | 
30 | CC(C)(C)OC(=O)N[C@@H](Cc1cn(C(=O)OC(C)(C)C)cn1)C(=O)NCCCNc1c2c(nc3ccccc13)CCCC2 | 3.6 | > 50000 | > 50 | > 50 | 157 |  | > 50000 |  |  |  | 15900 | 
31 | CC(C)(C)OC(=O)N[C@@H](Cc1cn(C(=O)OC(C)(C)C)cn1)C(=O)NCCCCNc1c2c(nc3ccccc13)CCCC2 | 0.064 | > 50000 | > 50 | > 50 | 122 |  | > 50000 |  |  |  | 12400 | 
32 | CC(C)(C)OC(=O)N[C@@H](Cc1c[nH]c2ccccc12)C(=O)NCCCCNc1c2c(nc3ccccc13)CCCC2 | 0.21 |  |  |  | 82.3 |  |  | 2620 | 8.64 | 8.58 | 7650 | 2630
33 | COC(=O)[C@H](Cc1ccccc1)NCCCCCCNc1c2c(nc3ccccc13)CCCC2 | 0.21 |  |  |  | 21.8 |  |  | 992 | 5.17 | 1.45 | 312 | 397
34 | N[C@@H](Cc1c[nH]cn1)C(=O)NCCCCNc1c2c(nc3ccccc13)CCCC2 | 4.1 |  |  |  | 101 |  |  | 972 | 1.47 | 0.958 | 199 | 391
35 | N[C@@H](Cc1c[nH]c2ccccc12)C(=O)NCCCCCNc1c2c(nc3ccccc13)CCCC2 | 1 |  |  |  | 37.8 |  |  | 630 | 0.936 | 1.72 | 119 | 105
36 | CC(C)(C)OC(=O)N[C@@H](Cc1ccccc1)C(=O)NCCCCNc1c2c(nc3ccccc13)CCCC2 | 0.38 | > 50000 | > 50 | > 50 | 158 | > 50000 | > 50000 |  |  |  |  | 
37 | c1ccc2c(NCCCCCNCCc3c[nH]cn3)c3c(nc2c1)CCCC3 | 2.4 |  |  |  | 60.2 |  |  | 439 | 0.541 | 1.28 | 290 | 439
